According to patent EP1862466A2, “Arrays with cleavable linkers” (THE SCRIPPS RESEARCH INSTITUTE, priority 2004, dated 2006):

Assays:
[1] = tested on: MBr1 anti-Globo H monoclonal antibody (IgM); assay: Microarray analysis of Globo H derivatives with MBr1 antibody; format: binding, mouse; settings: sugars spotted on NHS-coated glass slide; FITC secondary antibody
Protocol: NHS-coated glass slides were spotted with methanolic solutions of sugars 201-204a with concentrations of 5, 10, 20, 30, 40, 50, 60, 80 and 100 µM from bottom to top with ten duplicates horizontally placed in each grid. This attachment procedure is illustrated in FIG. 12. The slide was washed with PBS buffer for one minute.
This solution was added below the printed grid of sugars and then spread through the application of a coverslip. Incubation in a glass humidifying chamber was performed with shaking for 1 hour. Following this, the slide was washed 5x with 0.05 % tween20 / PBS buffer, 5x with PBS buffer and 5x with water. Next, 200 µL of a 70 µg/mL solution of FITC-tagged goat anti-mouse antibody (Cal Biochem) was formed and added to the slide as before. […] A fluorescence scan was then performed on the slide. The resulting image was analyzed using the program Imagene to locate and quantify the fluorescence of all the spots within the grid.
Disulfide linker immobilization (of type 217): The BOC protected derivative of disulfide linker 215 (3.9 mg, 13.5 µmol) was dissolved in 1 mL of dichloromethane and 1 mL trifluoroacetic acid was added. […] These solutions were spotted on a solid surface and analyzed along side 201-204a. […]
Images such as the one shown in FIG. 13 could then be processed using the program Imagene to encircle and quantify the fluorescence of each spot. […]

chST6GalNAc-I = chST6GalNAc-I activity on small acceptor molecules (α-D-galacto derivatives); format: biochemical, chicken; settings: substance used as acceptor
Text: The inventors have previously reported the cloning, expression, and characterization of chicken ST6GalNAc-I and its use in preparative synthesis of the O-linked sialoside antigens, STn-, α(2-6)SiaT-, α(2-3)SiaT- and Di-SiaT-antigen. Blixt, O.;Allin, K.;Pereira, L.;Datta, A. and Paulson, J. C., J. Am. Chem. Soc. 2002, 124, 5739-5746. Briefly, the recombinant enzyme was expressed in insect cells and purified by CDP-sepharose affinity chromatography to generate approximately 10 U/L of cell culture. The enzymatic activity was evaluated on a set of small acceptor molecules. […] Table 6. chST6GalNAc-I Activity of α-D-Galacto Derivatives

[2] = tested on: interaction between 2G12 and gp120; assay: Solution phase ELISA: oligomannose inhibition of 2G12 binding to gp120; design: species or system HIV-1; settings: oligomannose at 0.5 mM
Protocol: Enzyme-linked immunosorbent assay. Microtiter plate wells (flat bottom, Costar type 3690; Corning Inc.) were coated with 50 ng/well gp120JR-CSF overnight at 4°C. All subsequent steps were performed at room temperature. The wells were then washed four times with PBS/0.05% (vol/vol) Tween20 (Sigma) using a microplate washer (SkanWash 400, Molecular Devices) prior to blocking for 1 hr with 3% (mass/vol) BSA. IgG 2G12, diluted to 0.5 µg/mL (25 ng/well) with 1% (mass/vol) BSA/0.02% (vol/vol) Tween20/PBS (PBS-BT), was then added for 2 hrs to the antigen-coated wells in the presence of serially-diluted oligomannoses starting at 2mM. Unbound antibody was removed by washing four times, as described above. Bound 2G12 was detected with an alkaline phosphatase-conjugated goat anti-human IgG F(ab')2 antibody (Pierce) diluted 1:1000 in PBS-BT. After 1hr, the wells were washed four times and bound antibody was visualized with p-nitrophenol phosphate substrate (Sigma) and monitored at 405 nm.
Binding. Man9GlcNAc2 1 and deprotected oligomannoses 2-6 and 7-9 (see FIG. 17) were evaluated for their ability to inhibit the interaction between 2G12 and gp120 in a solution phase enzyme-linked immunosorbent assay (ELISA). […]

2G12 antibody = assay: Carbohydrate microarray analysis, microtiter-based, Scatchard plot (Kd); format: binding, human; settings: microtiter plate array
Protocol: Carbohydrate microarray analysis. Ninety-six well NHS-coated microtiter plates (NoAb Biodiscoveries) were treated with 200 µL of a 1 mM methanolic solution of the amino-functionalized disulfide and alkyne containing linker (scheme V) containing 5 % diisopropylethylamine (DIEA) and incubated overnight at 4°C. The microtiter plate was then washed with 2 x 200 µL methanol and 2 x 200 µL water. Next, 200 µL solutions of azido-functionalized oligomannose derivatives 21-25 at varying concentrations from 0 to 500 µM in 5 % DIEA / methanol were introduced. A sprinkle of copper (I) iodide was added and the contents were allowed to react overnight at 4°C. The next day, the contents were removed and the plates were washed with 2 x 200 µL methanol and 2 x 200 µL water. The plates were then blocked with 0.1 % Tween20 solution in HEPES buffer pH 7.5 at 4 °C for 1 hour and then washed with 3 x 200 µL HEPES buffer. Next, 200 µL of a 1 µg/mL solution of 2G12 antibody in 0.1 % Tween20 / PBS buffer was added to the wells for a 1 hour incubation at 4 °C and then washed with 2 x 200 µL PBS buffer. At this point, 200 µL of FITC-tagged goat anti-human IgG antibody (10 µg/mL in PBS, Cal Biochem) was added for 1 hour at 4 °C, and the wells were then washed with 2 x 200 µL PBS buffer. Detection of the FITC-tagged secondary antibody was performed in 200 µL water using a fluorescence plate reader. The resulting data yielded the oligomannose-2G12 binding isotherms and Scatchard plot analysis was implemented in the determination of dissociation constants. Adams et al. (2004) Chem. Biol. 11: 875-81.
Overall, many of the oligomannose derivatives can compete for binding of Man9GlcNAc2, and, therefore, may serve as building blocks for potential immunogens to elicit 2G12-like antibodies. Carbohydrate Microarray Analysis. Previous studies by the inventors using covalent microtiter plates with a panel of carbohydrate epitopes for interaction with 2G12 involved converting the amine-containing oligomannoses 4, 5, 7, 8 and 9 to the corresponding azide derivatives 21, 22, 23, 24 and 25. These derivatives were then covalently attached to a microplate-immobilized cleavable linker via the Cu (I)-catalyzed 1,3-dipolar cycloaddition reaction (FIG. 11B). Kd values for the interaction of 2G12 with oligomannoses 4, 5, 7, 8, 9 (Table 9) were determined using a microtiter-based assay with detection via a fluorescent secondary antibody (see Bryan et al.(2004) J. Am. Chem. Soc. 126, 8640-41). Table 9: The Kd values of oligomannoses 1 and 4, 5, 7, 8, 9 binding to 2G12, as determined by carbohydrate microarray analysis.

## C[C@@H]1O[C@@H](O[C@H]2[C@H](OCCCCCN)O[C@H](CO)[C@H](O)[C@@H]2O)[C@@H](O)[C@H](O)[C@@H]1O [Compound 201a]
[1]
  binding of MBr1 antibody to immobilized sugar (in words): no recruitment of antibody to the surface

## CC(=O)N[C@H]1[C@H](O[C@H]2[C@@H](O)[C@@H](CO)O[C@H](O[C@@H]3[C@H](O)[C@@H](O)[C@H](O[C@H]4[C@H](O)[C@@H](O)[C@H](OCCCCCN)O[C@@H]4CO)O[C@@H]3CO)[C@@H]2O)O[C@H](CO)[C@H](O)[C@@H]1O[C@@H]1O[C@H](CO)[C@H](O)[C@H](O)[C@H]1O[C@@H]1O[C@@H](C)[C@@H](O)[C@@H](O)[C@@H]1O [Compound 204a]
[1]
  binding of MBr1 antibody to immobilized sugar (in words): greatest affinity

## CC(=O)N[C@H]1C(O)O[C@H](CO)[C@H](O)[C@@H]1O (stereo partly drawn) [D-GalNAc]
chST6GalNAc-I
  chST6GalNAc-I Activity, cpm: 0 cpm
  chST6GalNAc-I Activity, nmol/mg x min^-1: 0.00 nmol/mg x min^-1

## NCCCCCO[C@H]1O[C@H](CO[C@H]2O[C@H](CO)[C@@H](O)[C@H](O)[C@@H]2O[C@H]2O[C@H](CO)[C@@H](O)[C@H](O)[C@@H]2O)[C@@H](O)[C@H](O[C@H]2O[C@H](CO)[C@@H](O)[C@H](O)[C@@H]2O[C@H]2O[C@H](CO)[C@@H](O)[C@H](O)[C@@H]2O)[C@@H]1O [Oligomannose 5]
[2]
  inhibition (%) of 2G12 binding to gp120: 37.7%
2G12 antibody
  affinity for 2G12 antibodies (in words): greatest affinity
